Reference: article PMC12150283, “Synthesis of new Ag(I) and Cd(II) hydrozanomide-based complexes with antibacterial and anticancer properties” (RSC Advances, 2025)
Like-named read-outs stand apart in the source and are kept apart here.

How the values were obtained:
[1] = tested on: glioblastoma LN-229 cells; experiment: MTT cell viability assay; type: cell-based, human; settings: 48 hours of incubation
Experimental: (§1) The glioblastoma cell lines LN-229 and U87 and the reference human normal skin fibroblast BJ were obtained from the American Type Culture Collection (ATCC). Cells were grown as monolayers when cultured in cell culture flasks and cultured in Dulbecco's Modified Eagle Medium (DMEM) – LN-229 and Eagle's Minimum Essential Medium (EMEM) – U87 and BJ, supplemented with 10% (v/v) fetal bovine serum, penicillin (10 000 U mL^−1), streptomycin (10 mg mL^−1) and amphotericin B (250 μg mL^−1). The cells were incubated at 37 °C, 5% CO2 atmosphere. The cells were maintained in the logarithmic growth phase by regular passage at 80% confluence.
(§2) The cytotoxicity of the tested compounds was evaluated against both human glioblastoma LN-229 and U-87 as well as normal BJ cell lines. The cells were plated in 96-well culture plates (2 × 10^4 well) and after 24 h incubation the cells were treated with the tested compounds in the concentration range 1–50 μM. The cells were cultured for the next 48 h. The cytotoxicity of the compounds was evaluated using the MTT colorimetric method as previously described.[28,29] IC50 values were determined using the AAT Bioquest IC50 calculator as the concentration of compounds capable of reducing cell viability by 50%. The experiment was performed in triplicate for each concentration. To examine the cytotoxic effect of compounds on cell morphology, cells were examined under an inverted phase contrast microscope Nikon Eclipse Ti with NIS Element software (Tokyo, Japan).

glioblastoma U87 cells = experiment: MTT cell viability assay; type: cell-based, human; settings: 48 hours of incubation
Experimental: as §1, §2

[2] = tested on: normal skin fibroblast BJ cells; experiment: MTT cell viability assay; type: cell-based, human; settings: BJ normal fibroblasts, 48 hours of incubation
Experimental: as §1, §2

[3] = tested on: Staphylococcus aureus ATCC 25923; design: method as in earlier work; settings: pure ligands, S. aureus ATCC 25923; previous study ref 29; cited from earlier work
[4] = tested on: Staphylococcus epidermidis ATCC 12228; design: method as in earlier work; settings: pure ligands, S. epidermidis ATCC 12228; previous study ref 29; cited from earlier work
[5] = tested on: Enterococcus faecalis ATCC 29212; design: method as in earlier work; settings: pure ligands, E. faecalis ATCC 29212; previous study ref 29; cited from earlier work
[6] = tested on: Salmonella typhimurium ATCC 14028; design: method as in earlier work; settings: pure ligands, S. typhimurium ATCC 14028; previous study ref 29; cited from earlier work
[7] = tested on: Bacillus cereus ŁOCK 0807; experiment: MIC determination; type: cell-based; settings: Bacillus cereus ŁOCK 0807; 18 h
Experimental: (§3) The antibacterial activity of tested samples was assessed against both gram-positive bacteria (Staphylococcus aureus ATCC 25923, Staphylococcus aureus ATCC 6538, Staphylococcus epidermidis ATCC 12228, Enterococcus faecalis ATCC 29212, Listeria monocytogenes ATCC 19115, Bacillus subtilis ATCC 6633, Bacillus cereus ATCC 10876) and gram-negative bacteria (Escherichia coli ATCC 10530, Salmonella typhimurium ATCC 14028). Antibacterial properties were evaluated using both the dilution method (employing DMSO and 96-well plates) and the diffusion-well method (using Mueller Hinton Agar, Merck, Germany).
(§4) The minimum inhibitory concentrations (MICs) of the tested samples were evaluated against a panel of reference microorganisms obtained from the American Type Culture Collection (ATCC), including Gram-negative bacteria (Escherichia coli ATCC 10530, Salmonella typhimurium ATCC 14028), and Gram-positive bacteria (Staphylococcus aureus ATCC 25923, Staphylococcus aureus ATCC 6538, Staphylococcus epidermidis ATCC 12228, Enterococcus faecalis ATCC 29212, Listeria monocytogenes ATCC 19115, Bacillus subtilis ATCC 6633), and one strain (Bacillus cereus ŁOCK 0807) obtained from the Pure Culture of Industrial Microorganisms of the Institute of Fermentation Technology and Microbiology ŁOCK 105 (Łódź, Poland).
(§5) The microorganism cultures with a density of 1.5 × 10^8 CFU mL^−1 (corresponding to a McFarland standard of 0.5) were plated on Mueller–Hinton Agar (Merck, Germany) following the procedures recommended by the European Committee on Antimicrobial Susceptibility Testing (EUCAST).[47] Wells measuring 10 mm in diameter were cut into the medium. The tested compounds were dissolved in a DMSO solution, which was recommended due to their chemical structures. Subsequently, 100 μL of prepared solutions containing the tested compounds at concentrations ranging from x μg mL^−1 to x μg mL^−1 were added to each well. The plates were incubated at 30 °C (for Bacillus subtilis and Bacillus cereus) or 37 °C (for other bacteria) for 18 hours. After incubation, the minimum inhibitory concentration (MIC value) was determined (the lowest concentration of the tested compounds that prevents bacterial growth) and expressed in μg mL^−1. The experiment was conducted in three independent replicates. Ciprofloxacin (Sigma Aldrich, Saint Louis, MO, USA) was used as a reference antimicrobial agent against Gram-negative bacteria, while vancomycin (Sigma Aldrich, Saint Louis, MO, USA) was used as a reference antimicrobial agent against Gram-positive bacteria.

[8] = tested on: Bacillus subtilis ATCC 6633; experiment: MIC determination; type: cell-based; settings: 18 h
Experimental: as §3, §4, §5

[9] = tested on: Enterococcus faecalis ATCC 29212; experiment: MIC determination; type: cell-based; settings: E. faecalis ATCC 29212; 18 h
Experimental: as §3, §4, §5

[10] = tested on: Escherichia coli ATCC 10530; experiment: MIC determination; type: cell-based
Experimental: as §3, §4, §5

[11] = tested on: Listeria monocytogenes ATCC 19115; experiment: MIC determination; type: cell-based
Experimental: as §3, §4, §5

[12] = tested on: Salmonella typhimurium ATCC 14028; experiment: MIC determination; type: cell-based; settings: S. typhimurium ATCC 14028; 18 h
Experimental: as §3, §4, §5

[13] = tested on: Staphylococcus aureus ATCC 25923; experiment: MIC determination; type: cell-based; settings: S. aureus ATCC 25923; 18 h
Experimental: as §3, §4, §5

[14] = tested on: Staphylococcus aureus ATCC 6538; experiment: MIC determination; type: cell-based; settings: S. aureus ATCC 6538; 18 h
Experimental: as §3, §4, §5

[15] = tested on: Staphylococcus epidermidis ATCC 12228; experiment: MIC determination; type: cell-based; settings: S. epidermidis ATCC 12228; 18 h
Experimental: as §3, §4, §5

S. aureus ATCC 25923 = experiment: Diffusion-well method, inhibition zones; type: cell-based, Staphylococcus aureus; settings: 500 µg/mL, wells 10 mm
Experimental: as §3
(§6) 24 hour bacterial cultures with a density of 1–2 × 10^8 CFU mL^−1 were plated (0.1 mL) on Mueller–Hinton Agar (Merck, Germany). Subsequently, wells with a diameter of 10 mm were cut out from and filled with 100 μL of the tested compound at a concentration of 10–500 μg mL^−1 (diluted in DMSO). After an 18-hour incubation at either 30 °C (for Bacillus ssp.) or 37 °C (for other tested microorganisms), the inhibition zones around the wells were measured, and the results were expressed in millimetres (Table S9 ^†).

S. aureus ATCC 6538 = experiment: Diffusion-well method, inhibition zones; type: cell-based, Staphylococcus aureus; settings: 500 µg/mL, wells 10 mm
Experimental: as §3, §6

E. faecalis ATCC 29212 = experiment: Diffusion-well method, inhibition zones; type: cell-based, Enterococcus faecalis; settings: 500 µg/mL, wells 10 mm
Experimental: as §3, §6

B. cereus ŁOCK 0807 = experiment: Diffusion-well method, inhibition zones; type: cell-based, Bacillus cereus; settings: 500 µg/mL, wells 10 mm
[16] = tested on: L. monocytogenes ATCC 19115; experiment: Diffusion-well method, inhibition zones; type: cell-based, Listeria monocytogenes; settings: 500 µg/mL, wells 10 mm
Experimental: as §3, §6

B. subtilis ATCC 6633 = experiment: Diffusion-well method, inhibition zones; type: cell-based, Bacillus subtilis; settings: 500 µg/mL, wells 10 mm
Experimental: as §3, §6

E. coli ATCC 10530 = experiment: Diffusion-well method, inhibition zones; type: cell-based, Escherichia coli; settings: 500 µg/mL, wells 10 mm
Experimental: as §3, §6

[17] = tested on: S. Typhimurium ATCC 14028; experiment: Diffusion-well method, inhibition zones; type: cell-based, Salmonella typhimurium; settings: 500 µg/mL, wells 10 mm
Experimental: as §3, §6

[18] = Time-dependent UV-vis solution stability in DMSO; type: physicochemical; settings: 0 min to 48 h, room temperature
Source text: The stability of metal complexes is a crucial property that provides insight into their interactions with biological molecules, as it directly impacts their reactivity, bioavailability, and effectiveness in therapeutic applications. Additionally, the solubility of these complexes in dimethyl sulfoxide (DMSO) is of considerable importance, as solubility data are essential for optimizing storage conditions and ensuring compatibility with biological assays.[39] DMSO, a widely used solvent in drug discovery, serves as a medium that supports the stability and bioavailability of complexes under assay conditions, which is critical for maintaining the integrity of analytical protocols and enabling accurate assessments of biological activity. For the obtained complexes, the time-dependent UV-vis investigations in DMSO (Fig. 5 and S9 ^†) were carried out from 0 min to 48 h (0 min, 30 min, 1 h, 2 h, 3 h, 24 h, 48 h).
The sample solutions (50 μL (1.0 × 10^−3 M)) of the complexes were prepared in DMSO (Sigma Aldrich, ≥99.9%). The absorption spectra of the complexes were measured with increasing time (0 min, 30 min, 60 min, 2 h, 3 h, 24 h, 48 h) at room temperature. All measurements were performed on the Shimadzu UV-2401PC.

[19] = Escherichia coli ATCC 10530, 18 h
[20] = Listeria monocytogenes ATCC 19115, 18 h

Row | Compound | MIC [7] | MIC [8] | MIC [9] | MIC [10, 19] | MIC [11, 20] | MIC [12] | MIC [13] | MIC [14] | MIC [15] | Inhibition zone (S. aureus ATCC 25923) | Inhibition zone (S. aureus ATCC 6538) | Inhibition zone (E. faecalis ATCC 29212) | Inhibition zone (B. cereus ŁOCK 0807) | Inhibition zone [16] | Inhibition zone (B. subtilis ATCC 6633) | Inhibition zone (E. coli ATCC 10530) | IC50 [1] | IC50 (glioblastoma U87 cells) | IC50 [2] | hypochromic effect [18] | also measured
1 | N/C(=N\N=C\c1ccccc1)c1cncc(N2CCCC2)n1 [Complex L6, (benzylidene)-6-(pyrrolidin-1-yl)pyrazine-2-carbohydra-zonamide] |  |  |  |  |  |  |  |  |  |  |  |  |  |  |  |  |  |  |  |  | IC50 ([1]; Homo sapiens): > 50 µM; IC50 (glioblastoma U87 cells; Homo sapiens, U-87 MG): > 50 µM; IC50 ([2]; Homo sapiens): 42.4 ± 6.17 µM; MIC [3]: 500 µg/mL; MIC [4]: 500 µg/mL; MIC [5]: 500 µg/mL; MIC [6]: 500 µg/mL
2 | NC(=NN=Cc1ccc([N+](=O)[O-])cc1)c1cccc(Cl)n1.O=[N+]([O-])[O-].[Ag+] [Complex 2, AgL2NO3] | 50 µg/mL | 50 µg/mL | 50 µg/mL | 10 µg/mL | 10 µg/mL | 50 µg/mL | 50 µg/mL | 50 µg/mL | > 500 µg/mL | 19 mm | 22 mm | 14 mm | 18 mm | 19 mm | 16 mm | 20 mm | 37.2 ± 6.55 µM | > 50 µM | 14.5 ± 2.82 µM |  | MIC ([10]; Escherichia coli): 10 µg/mL; MIC ([11]; Listeria monocytogenes): 10 µg/mL; Inhibition zone [17]: 19 mm
3 | NC(=NN=Cc1ccccc1)c1cc(Cl)ccn1.O=[N+]([O-])[O-].[Ag+] [Complex 3, AgL3NO3] | 50 µg/mL | 10 µg/mL | 50 µg/mL | 10 µg/mL | 10 µg/mL | 500 µg/mL | 100 µg/mL | 50 µg/mL | 250 µg/mL | 15 mm | 15 mm | 13 mm | 18 mm | 19 mm | 17 mm | 20 mm | > 50 µM | 32 ± 7.08 µM | > 50 µM | 2.31% | 
4 | NC(=NN=Cc1ccc([N+](=O)[O-])cc1)c1cccc(Cl)n1.NC(=NN=Cc1ccc([N+](=O)[O-])cc1)c1cccc(Cl)n1.[Cd+2].[Cl-].[Cl-] [Complex 7, Cd (L2)2Cl2] | > 500 µg/mL | > 500 µg/mL | > 500 µg/mL | 500 µg/mL | > 500 µg/mL | > 500 µg/mL | 100 µg/mL | 500 µg/mL | > 500 µg/mL | 15 mm | 13 mm |  |  |  |  | 12 mm | > 50 µM | > 50 µM | 41.7 ± 4.18 µM | 27.7% | shift of peak maxima [18]: 15 nm
